Patent US20260034135A1, “USE OF N6-BENZYLAMINOPURINE AS AN APPETITE SUPPRESSANT” (THE GOVERNING COUNCIL OF THE UNIVERSITY OF TORONTO, priority 2022, published 2026)

How the values were obtained:
[1] = tested on: Npy, Agrp, Pomc; experiment: Hypothalamic feeding neuropeptide expression in mice by qRT-PCR; format: in vivo, CD-1 mice
Experimental: All protocols using mice were approved by the University Animal Care Committee of the University of Toronto and were performed in accordance with the Canadian Council on Animal Care. Animal experiments were performed in three separate animal facilities: Medical Sciences Building (MSB), Centre for Cellular and Biomolecular Research (CCBR) and the Biological Sciences Facility (BSF) due to ongoing construction and housing changes. Facilities and dates are indicated in each experimental cohort. N6-benzylaminopurine (BAP; also called N6-benzyladenine) was obtained from Sigma (B3408, cell culture grade in powder form; CAS number 1214-39-7). Male and female CD-1 mice aged 6-7 weeks were acquired from Charles Rivers and acclimated on a chow diet for one week prior to experimentation. Mice were then weight-matched and placed on either a 60% high fat diet (HFD) or sucrose-matched control diet for 4 weeks (from Research Diets: 60% HFD D12492 and the sucrose-matched control diet […]). After 3 weeks on the diet, mice were acclimated for one week to the drinking apparatus, a 50 mL canonical tube with a drinking tube. After 4 weeks on the diet, the mice were again weight-matched and randomly assigned to either the control or BAP group. […] The average dosages achieved using this method are as follows: male HFD (200 mg/kg/day), male control (157 mg/kg/day), female HFD (189 mg/kg/day), and female control (129.9 mg/kg/day). The mice were exposed continuously to the solutions for a total of 33 days. One week prior to the end of the experiment (day 28), the mice were fasted for 4 hr and underwent intraperitoneal insulin tolerance testing (ITT). After 33 days, the mice were sacrificed, and their tissues were collected. RNA was isolated from the collected hypothalamic and used to quantify gene expression via qRT-PCR. […] All mice were kept on the 60% HFD throughout the exposure period. The male mice were fed their respective emulsion for 11, 14 or 27 days (as indicated), and the female mice were fed for 12 or 36 days (as indicated). On day 12, the one cohort of male mice underwent general anesthetic for the purpose of post-experiment Bruker scanning. The male mice were then fed their assigned emulsion 2 hr prior to sacrificing and tissue collection. […] Hypothalamic collected from the mice were then used to isolate RNA and quantify gene expression using quantitative reverse transcription polymerase chain reaction (qRT-PCR). For cell culture experiments, total RNA was isolated using PureLink RNA isolation kit (Thermofisher Scientific, Burlington, ON, Canada) according to the manufacturer's instruction with on column DNase step (PureLink DNAse kit) or DNase I treatment to remove genomic DNA. For mouse experiments, total RNA was isolated using mirVana PARIS RNA and native protein isolation kit (Thermofisher Scientific). […] Quantitative reverse transcription polymerase chain reaction (RT-qPCR) was performed with 12.5 ng of cDNA amplified with Platinum SYBR green qPCR SuperMix-UDG with ROX on an Applied Biosystems Prism 7900HT or PowerTrack Green Master Mix on an Applied Biosystems QuantStudio 5 and gene specific primers as per manufacturer's instructions (Table 1). Data was analyzed using […] and normalized to reference gene, either 60S ribosomal protein L7 (Rpl7) or Histone 3a (His).

[2] = BAP in the drinking water in CD-1 mice: body weight and water intake; format: in vivo
Experimental: All protocols using mice were approved by the University Animal Care Committee of the University of Toronto and were performed in accordance with the Canadian Council on Animal Care. Animal experiments were performed in three separate animal facilities: Medical Sciences Building (MSB), Centre for Cellular and Biomolecular Research (CCBR) and the Biological Sciences Facility (BSF) due to ongoing construction and housing changes. Facilities and dates are indicated in each experimental cohort. N6-benzylaminopurine (BAP; also called N6-benzyladenine) was obtained from Sigma (B3408, cell culture grade in powder form; CAS number 1214-39-7). Male and female CD-1 mice aged 6-7 weeks were acquired from Charles Rivers and acclimated on a chow diet for one week prior to experimentation. Mice were then weight-matched and placed on either a 60% high fat diet (HFD) or sucrose-matched control diet for 4 weeks (from Research Diets: 60% HFD D12492 and the sucrose-matched control diet […]). After 3 weeks on the diet, mice were acclimated for one week to the drinking apparatus, a 50 mL canonical tube with a drinking tube. After 4 weeks on the diet, the mice were again weight-matched and randomly assigned to either the control or BAP group. […] The average dosages achieved using this method are as follows: male HFD (200 mg/kg/day), male control (157 mg/kg/day), female HFD (189 mg/kg/day), and female control (129.9 mg/kg/day). The mice were exposed continuously to the solutions for a total of 33 days. One week prior to the end of the experiment (day 28), the mice were fasted for 4 hr and underwent intraperitoneal insulin tolerance testing (ITT). After 33 days, the mice were sacrificed, and their tissues were collected. RNA was isolated from the collected hypothalamic and used to quantify gene expression via qRT-PCR.

[3] = female CD-1, 60% HFD, BAP in drinking water 33 days
[4] = male CD-1, HFD, BAP emulsion 11 days, fed 2 hr prior to sacrifice, cohort CCBR
[5] = male CD-1, HFD, BAP emulsion 14 days, cohort BSF
[6] = male CD-1, HFD, BAP emulsion, 28 days cohort BSF (27 days per FIG. 22)
[7] = male CD-1, sucrose-matched control diet, BAP in drinking water 33 days

## c1ccc(CNc2ncnc3nc[nH]c23)cc1 [BAP, N6-benzylaminopurine]
[1]; female CD-1, 60% HFD, 300 mg/kg BAP emulsion 36 days, cohort BSF
  hypothalamic Npy, Agrp, and Pomc expression: no changes
[1]; female CD-1, 60% HFD, BAP emulsion 12 days, fed 16 hr prior to sacrifice, cohort CCBR (data not shown)
  hypothalamic expression of feeding neuropeptides: no significant changes
[1]; [3]
  hypothalamic Agrp mRNA expression: no significant changes
  hypothalamic Npy mRNA expression: no significant changes
  hypothalamic Pomc mRNA expression: decreased
[1]; female CD-1, sucrose-matched control diet, BAP in drinking water 33 days, trend to increased Npy and AgRP
  hypothalamic feeding neuropeptide expression (Npy, Agrp, Pomc): do not have significant changes
[1]; male CD-1, 60% HFD, BAP in drinking water 33 days
  hypothalamic feeding-related neuropeptide expression (Npy, Agrp, Pomc) vs control: did not have any significant changes
[1]; [4]
  hypothalamic Agrp mRNA expression: significantly increased
  hypothalamic Npy mRNA expression: significantly increased
  hypothalamic Pomc mRNA expression: no significant changes
[1]; [5]
  hypothalamic Agrp expression: modest increase
  hypothalamic Npy expression: modest increase
  hypothalamic Pomc expression: no change
[1]; [6]
  hypothalamic Agrp expression: modest increase
  hypothalamic Npy expression: modest increase
  hypothalamic Pomc expression: no change
[1]; [7]
  hypothalamic AgRP expression vs control: significantly higher
  hypothalamic Npy expression vs control: significantly higher
  hypothalamic Pomc mRNA expression vs control: no change
[2]; female CD-1, 60% HFD, 10 mM BAP in drinking water (189 mg/kg/day), after 9 days of exposure
  initial body weight loss: 9%
[2]; female CD-1, 60% HFD, 10 mM BAP in drinking water, 33 days
  body weight less than control group on same diet at end: 3 g
[2]; female CD-1, sucrose-matched control diet, 10 mM BAP in drinking water (129.9 mg/kg/day), after 3 days, quickly regained
  initial body weight loss: 5%
[2]; female CD-1, sucrose-matched control diet, 10 mM BAP in drinking water, 33 days
  body weight as percentage of starting weight vs vehicle control: not reduced
[2]; male CD-1, 60% HFD, 10 mM BAP in drinking water (200 mg/kg/day), peak after 13 days of exposure
  peak body weight loss: 18%
[2]; male CD-1, 60% HFD, 10 mM BAP in drinking water, 33 days
  body weight difference, control heavier than BAP group at end of experimental period: 11 grams
[2]; male CD-1, sucrose-matched control diet, 10 mM BAP in drinking water (157 mg/kg/day), peak after 12 days
  peak body weight loss: 9%
[2]; male CD-1, sucrose-matched control diet, 10 mM BAP in drinking water, 33 days
  body weight lighter than non-BAP control at end of experimental period: 4 g
